Test results: patent US20140315889A1, “HYDROXAMATE DERIVATIVES FOR HDAC INHIBITOR, AND THE PHARMACEUTICAL COMPOSITION COMPRISING THEREOF” (CHONG KUN DANG PHARMACEUTICAL CORP., priority 2011, published 2014)

Legend:
human recombinant HDAC6 = biological target: T1, human recombinant HDAC6 (Homo sapiens, UniProt Q9UBN7); test: HDAC enzyme activity test, HDAC6; assay type: biochemical; conditions: Table 12; for Selectivity for HDAC6, HD1/HD6: ratio HDAC1 IC50 / HDAC6 IC50; for IC50: read-out: Inhibition ability (IC50) HDAC6
T1 construct: purchased Calibiochem Co. (so in the source) 382180
T1 sequence (Q9UBN7 1-1215): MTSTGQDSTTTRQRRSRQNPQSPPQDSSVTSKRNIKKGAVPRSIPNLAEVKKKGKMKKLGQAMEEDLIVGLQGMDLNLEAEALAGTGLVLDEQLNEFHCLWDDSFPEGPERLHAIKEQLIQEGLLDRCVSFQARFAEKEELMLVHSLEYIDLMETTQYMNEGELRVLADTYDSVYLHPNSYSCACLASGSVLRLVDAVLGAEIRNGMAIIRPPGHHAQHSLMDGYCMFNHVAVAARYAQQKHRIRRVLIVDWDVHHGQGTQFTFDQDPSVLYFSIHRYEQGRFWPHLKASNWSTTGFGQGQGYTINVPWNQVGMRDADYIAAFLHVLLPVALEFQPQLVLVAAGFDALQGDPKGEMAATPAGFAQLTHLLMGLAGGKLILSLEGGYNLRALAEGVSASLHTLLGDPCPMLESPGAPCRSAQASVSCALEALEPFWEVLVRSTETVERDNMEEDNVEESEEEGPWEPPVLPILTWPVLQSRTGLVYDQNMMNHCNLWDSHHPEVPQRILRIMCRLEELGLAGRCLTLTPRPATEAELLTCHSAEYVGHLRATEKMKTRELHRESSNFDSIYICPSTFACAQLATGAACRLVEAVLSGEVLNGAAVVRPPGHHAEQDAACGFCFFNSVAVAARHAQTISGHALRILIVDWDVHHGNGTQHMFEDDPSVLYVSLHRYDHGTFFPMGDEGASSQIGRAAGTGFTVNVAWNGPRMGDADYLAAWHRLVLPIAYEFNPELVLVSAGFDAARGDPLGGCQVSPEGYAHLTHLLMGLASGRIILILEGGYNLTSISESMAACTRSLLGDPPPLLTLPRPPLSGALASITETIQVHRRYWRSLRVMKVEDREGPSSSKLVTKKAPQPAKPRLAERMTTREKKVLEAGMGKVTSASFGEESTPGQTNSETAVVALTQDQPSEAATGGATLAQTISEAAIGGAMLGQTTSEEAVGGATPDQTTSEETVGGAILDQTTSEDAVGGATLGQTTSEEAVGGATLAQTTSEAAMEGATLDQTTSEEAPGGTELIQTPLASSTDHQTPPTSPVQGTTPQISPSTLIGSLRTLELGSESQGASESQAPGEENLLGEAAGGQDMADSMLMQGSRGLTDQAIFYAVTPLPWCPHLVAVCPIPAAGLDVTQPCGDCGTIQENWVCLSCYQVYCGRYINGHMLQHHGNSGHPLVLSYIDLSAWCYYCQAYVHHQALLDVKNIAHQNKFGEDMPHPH
Experimental: (§1) Then, 0.3 μg of enzyme and 10 μM of substrate per well were added, reacted at 30° C. for 60 minutes. Thereto, Fluor de Lys® Developer II (BML-KI176) was added and reacted for 30 minutes. […] From the data, the respective IC50 were calculated by GraphPad Prism 4.0 program.

Human recombinant HDAC1 = biological target: T2, Human recombinant HDAC1 (Homo sapiens, UniProt Q13547); test: HDAC enzyme activity test, HDAC1; assay type: biochemical; conditions: Table 12; read-out: Inhibition ability (IC50) HDAC1
T2 construct: purchased Enzo Life Science Co. (named for the kit; assigned to the enzyme from the BML- catalogue prefix) BML-SE456
T2 sequence (Q13547 whole entry): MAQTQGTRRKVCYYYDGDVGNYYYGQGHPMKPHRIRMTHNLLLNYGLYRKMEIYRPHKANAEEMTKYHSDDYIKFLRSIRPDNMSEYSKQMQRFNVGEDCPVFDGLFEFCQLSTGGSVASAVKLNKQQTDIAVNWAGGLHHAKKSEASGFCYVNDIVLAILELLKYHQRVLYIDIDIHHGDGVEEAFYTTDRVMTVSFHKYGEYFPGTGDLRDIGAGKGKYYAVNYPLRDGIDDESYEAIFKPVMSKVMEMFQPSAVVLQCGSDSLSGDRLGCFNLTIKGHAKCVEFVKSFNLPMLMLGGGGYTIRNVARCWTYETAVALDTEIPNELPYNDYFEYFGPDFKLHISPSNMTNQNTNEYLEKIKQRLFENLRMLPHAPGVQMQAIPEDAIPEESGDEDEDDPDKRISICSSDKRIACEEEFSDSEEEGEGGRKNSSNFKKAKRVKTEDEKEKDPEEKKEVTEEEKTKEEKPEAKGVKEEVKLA
Experimental: as §1

With CC1(C)CC(=O)c2c(n(CCCCCC(=O)NO)c3cc(Br)ccc23)C1 [Compound 41, 6-(7-bromo-2,2-dimethyl-4-oxo-1,2,3,4-tetrahydrocarbazol-9-yl)-N-hydroxyhexanamide] the “Selectivity for HDAC6, HD1/HD6” value (human recombinant HDAC6) was 50.7, the IC50 (human recombinant HDAC6) was 1.95 nM and the IC50 (Human recombinant HDAC1) was 98.8 nM.

For CN(CCO)CCN1CCc2c(c3cc(F)ccc3n2Cc2ccc(C(=O)NO)cc2)C1=O [Compound 292, 4-((8-fluoro-2-(2-((2-hydroxyethyl)(methyl)amino)ethyl)-1-oxo-1,2,3,4-tetrahydropyrido[4,3-b]indol-5-yl)methyl)-N-hydroxybenzamide], the “Selectivity for HDAC6, HD1/HD6” value (human recombinant HDAC6) was 781.3, the IC50 (human recombinant HDAC6) was 12.8 nM and the IC50 (Human recombinant HDAC1) was 10000 nM.

For O=C(NO)c1ccc(Cn2c3c(c4ccccc42)C(=O)C(CN2CCCCC2)CC3)cc1 (stereo not drawn) [Compound 86, N-hydroxy-4-((4-oxo-3-(piperidin-1-ylmethyl)-1,2,3,4-tetrahydrocarbazol-9-yl)methyl)benzamide], the “Selectivity for HDAC6, HD1/HD6” value (human recombinant HDAC6) was 286.1, the IC50 (human recombinant HDAC6) was 9.94 nM and the IC50 (Human recombinant HDAC1) was 2840 nM.

O=C(CCCCCn1c2c(c3ccccc31)C(=O)C(CN1CCC(F)(F)C1)CC2)NO (stereo not drawn) [Compound 204, 6-(3-((3,3-difluoropyrrolidin-1-yl)methyl)-4-oxo-1,2,3,4-tetrahydrocarbazol-9-yl)-N-hydroxyhexanamide] was tested, and the “Selectivity for HDAC6, HD1/HD6” value (human recombinant HDAC6) was 40, the IC50 (human recombinant HDAC6) was 48.7 nM and the IC50 (Human recombinant HDAC1) was 1950 nM.

For CC1(C)CCc2c(c3ccccc3n2Cc2ccc(C(=O)NO)cc2)C1=O [Compound 131, 4-((3,3-dimethyl-4-oxo-1,2,3,4-tetrahydrocarbazol-9-yl)methyl)-N-hydroxybenzamide], the “Selectivity for HDAC6, HD1/HD6” value (human recombinant HDAC6) was 296.6, the IC50 (human recombinant HDAC6) was 9.1 nM and the IC50 (Human recombinant HDAC1) was 2690 nM.

In the case of O=C(CCCCCCn1c2c(c3cc(F)ccc31)C(=O)CCC2)NO [Compound 325, 7-(3-fluoro-5-oxo-5,6,7,8-tetrahydrocarbazol-9-yl)-N-hydroxyheptanamide], the “Selectivity for HDAC6, HD1/HD6” value (human recombinant HDAC6) is reported as 31.3, the IC50 (human recombinant HDAC6) is reported as 3 nM and the IC50 (Human recombinant HDAC1) is reported as 93.8 nM.

With CC1(C)CC(=O)c2c(n(CCCCCC(=O)NO)c3c(Cl)cc(Cl)cc23)C1 [Compound 47, 6-(1,3-dichloro-7,7-dimethyl-5-oxo-5,6,7,8-tetrahydrocarbazol-9-yl)-N-hydroxyhexanamide] the “Selectivity for HDAC6, HD1/HD6” value (human recombinant HDAC6) was 6.9, the IC50 (human recombinant HDAC6) was 421 nM and the IC50 (Human recombinant HDAC1) was 2910 nM.

With Cc1cc2c(n1CCCCCCC(=O)NO)CCCC2=O [Compound 346, N-hydroxy-7-(2-methyl-4-oxo-4,5,6,7-tetrahydroindol-1-yl)heptanamide] the “Selectivity for HDAC6, HD1/HD6” value (human recombinant HDAC6) was 10.2, the IC50 (human recombinant HDAC6) was 25 nM and the IC50 (Human recombinant HDAC1) was 255 nM.

In the case of CN1CCN(CC2C(=O)c3c(n(Cc4ccc(C(=O)NO)cc4)c4ccc(F)cc34)CC2(C)C)CC1 (stereo not drawn) [Compound 209, 4-((6-fluoro-2,2-dimethyl-3-((4-methylpiperazin-1-yl)methyl)-4-oxo-1,2,3,4-tetrahydrocarbazol-9-yl)methyl)-N-hydroxybenzamide], the “Selectivity for HDAC6, HD1/HD6” value (human recombinant HDAC6) is reported as 148.8, the IC50 (human recombinant HDAC6) is reported as 2.5 nM and the IC50 (Human recombinant HDAC1) is reported as 365 nM.

For CC1(C)CC(=O)c2c(n(CCCCCC(=O)NO)c3ccccc23)C1 [Compound 18, 6-(2,2-dimethyl-4-oxo-1,2,3,4-tetrahydrocarbazol-9-yl)-N-hydroxyhexanamide], the “Selectivity for HDAC6, HD1/HD6” value (human recombinant HDAC6) was 18.5, the IC50 (human recombinant HDAC6) was 71.4 nM and the IC50 (Human recombinant HDAC1) was 1320 nM.

For Cc1nccn1CC1C(=O)c2c(n(Cc3ccc(C(=O)NO)cc3)c3ccc(F)cc23)CC1(C)C (stereo not drawn) [Compound 192, 4-((6-fluoro-2,2-dimethyl-3-((2-methyl-1H-imidazol-1-yl)methyl)-4-oxo-1,2,3,4-tetrahydrocarbazol-9-yl)methyl)-N-hydroxybenzamide], the “Selectivity for HDAC6, HD1/HD6” value (human recombinant HDAC6) was 2546.4, the IC50 (human recombinant HDAC6) was 1.8 nM and the IC50 (Human recombinant HDAC1) was 4610 nM.

CN1CCN(CC2CCc3c(c4ccccc4n3Cc3ccc(C(=O)NO)cc3)C2=O)CC1 (stereo not drawn) [Compound 111, N-hydroxy-4-((3-((4-methylpiperazin-1-yl)methyl)-4-oxo-1,2,3,4-tetrahydrocarbazol-9-yl)methyl)benzamide] was tested, and the “Selectivity for HDAC6, HD1/HD6” value (human recombinant HDAC6) was 338.2, the IC50 (human recombinant HDAC6) was 12.2 nM and the IC50 (Human recombinant HDAC1) was 4140 nM.

For COCCN1CCN(CC2CCc3c(c4ccccc4n3Cc3ccc(C(=O)NO)cc3)C2=O)CC1 (stereo not drawn) [Compound 114], the “Selectivity for HDAC6, HD1/HD6” value (human recombinant HDAC6) was 327.1, the IC50 (human recombinant HDAC6) was 17.7 nM and the IC50 (Human recombinant HDAC1) was 5790 nM.

O=C(NO)c1ccc(Cn2c3c(c4cc(F)ccc42)C(=O)N(CCN2CCN(CCO)CC2)CC3)cc1 [Compound 288, 4-((8-fluoro-2-(2-(4-(2-hydroxyethyl)piperazin-1-yl)ethyl)-1-oxo-1,2,3,4-tetrahydropyrido[4,3-b]indol-5-yl)methyl)-N-hydroxybenzamide] was tested, and the “Selectivity for HDAC6, HD1/HD6” value (human recombinant HDAC6) was 708.9, the IC50 (human recombinant HDAC6) was 10.6 nM and the IC50 (Human recombinant HDAC1) was 7510 nM.

CN1CCN(CCN2CCc3c(c4ccccc4n3Cc3ccc(C(=O)NO)cc3)C2=O)CC1 [Compound 251, N-hydroxy-4-((2-(2-(4-methylpiperazin-1-yl)ethyl)-1-oxo-1,2,3,4-tetrahydropyrido[4,3-b]indol-5-yl)methyl)benzamide] was tested, and the “Selectivity for HDAC6, HD1/HD6” value (human recombinant HDAC6) was 820.3, the IC50 (human recombinant HDAC6) was 1.77 nM and the IC50 (Human recombinant HDAC1) was 1450 nM.

For CN(C)CC1C(=O)c2c(n(Cc3ccc(C(=O)NO)cc3)c3ccccc23)CC1(C)C (stereo not drawn) [Compound 129, 4-((3-((dimethylamino)methyl)-2,2-dimethyl-4-oxo-1,2,3,4-tetrahydrocarbazol-9-yl)methyl)-N-hydroxybenzamide], the “Selectivity for HDAC6, HD1/HD6” value (human recombinant HDAC6) was 642.7, the IC50 (human recombinant HDAC6) was 6.61 nM and the IC50 (Human recombinant HDAC1) was 4250 nM.

With CC1(C)CC(=O)c2c(n(Cc3ccc(C(=O)NO)cc3)c3ccc(Br)cc23)C1 [Compound 45, 4-((6-bromo-2,2-dimethyl-4-oxo-1,2,3,4-tetrahydrocarbazol-9-yl)methyl)-N-hydroxybenzamide] the “Selectivity for HDAC6, HD1/HD6” value (human recombinant HDAC6) was 42.1, the IC50 (human recombinant HDAC6) was 130 nM and the IC50 (Human recombinant HDAC1) was 5480 nM.

CCN1CCN(CC2CCc3c(c4ccccc4n3Cc3ccc(C(=O)NO)cc3)C2=O)CC1 (stereo not drawn) [Compound 112, 4-((3-((4-ethylpiperazin-1-yl)methyl)-4-oxo-1,2,3,4-tetrahydrocarbazol-9-yl)methyl)-N-hydroxy benzamide] was tested, and the “Selectivity for HDAC6, HD1/HD6” value (human recombinant HDAC6) was 310.6, the IC50 (human recombinant HDAC6) was 14.9 nM and the IC50 (Human recombinant HDAC1) was 4620 nM.

For CC1(C)CC(=O)c2c(n(CCCCCCC(=O)NO)c3c(Br)cccc23)C1 [Compound 52, 7-(1-bromo-7,7-dimethyl-5-oxo-5,6,7,8-tetrahydrocarbazol-9-yl)-N-hydroxyheptanamide], the “Selectivity for HDAC6, HD1/HD6” value (human recombinant HDAC6) was 27.7, the IC50 (human recombinant HDAC6) was 23.9 nM and the IC50 (Human recombinant HDAC1) was 662 nM.

With O=C(CCCCCCn1c2c(c3cc(F)ccc31)C(=O)C(CN1CCOCC1)CC2)NO (stereo not drawn) [Compound 344, 7-(6-fluoro-3-(morpholinomethyl)-4-oxo-1,2,3,4-tetrahydrocarbazol-9-yl)-N-hydroxyheptanamide] the “Selectivity for HDAC6, HD1/HD6” value (human recombinant HDAC6) was 6.3, the IC50 (human recombinant HDAC6) was 16.2 nM and the IC50 (Human recombinant HDAC1) was 102 nM.

In the case of Cc1nn(Cc2ccc(C(=O)NO)cc2)c2c1C(=O)CC(C)(C)C2 [Compound 101, N-hydroxy-4-((3,6,6-trimethyl-4-oxo-4,5,6,7-tetrahydroindazol-1-yl)methyl)benzamide], the “Selectivity for HDAC6, HD1/HD6” value (human recombinant HDAC6) is reported as 135.1, the IC50 (human recombinant HDAC6) is reported as 12.2 nM and the IC50 (Human recombinant HDAC1) is reported as 1650 nM.

For CC1(C)CC(=O)c2c(n(Cc3ccc(C(=O)NO)cc3)c3c(Cl)ccc(Cl)c23)C1 [Compound 49, 4-((1,4-dichloro-7,7-dimethyl-5-oxo-5,6,7,8-tetrahydrocarbazol-9-yl)methyl)-N-hydroxybenzamide], the “Selectivity for HDAC6, HD1/HD6” value (human recombinant HDAC6) was 144.8, the IC50 (human recombinant HDAC6) was 93 nM and the IC50 (Human recombinant HDAC1) was 13500 nM.

For CC1(C)CC(=O)C2c3c(F)cccc3N(CCCCCC(=O)NO)C2C1 (stereo not drawn) [Compound 60, 6-(5-fluoro-2,2-dimethyl-4-oxo-2,3,4,4a-tetrahydro-1H-carbazol-9(9aH)-yl)-N-hydroxyhexanamide], the “Selectivity for HDAC6, HD1/HD6” value (human recombinant HDAC6) was 127.4, the IC50 (human recombinant HDAC6) was 72 nM and the IC50 (Human recombinant HDAC1) was 9180 nM.

For O=C(NO)c1ccc(Cn2c3c(c4ccccc42)C(=O)C(CN2CCCC2)CC3)cc1 (stereo not drawn) [Compound 88, N-hydroxy-4-((4-oxo-3-(pyrrolidin-1-ylmethyl)-1,2,3,4-tetrahydrocarbazol-9-yl)methyl)benzamide], the “Selectivity for HDAC6, HD1/HD6” value (human recombinant HDAC6) was 358.7, the IC50 (human recombinant HDAC6) was 11.1 nM and the IC50 (Human recombinant HDAC1) was 3970 nM.
